# Data taken from article PMC6257622, “Discovery and Structure–Activity-Relationship Study of N-Alkyl-5-hydroxypyrimidinone Carboxamides as Novel Antitubercular Agents Targeting Decaprenylphosphoryl-β-D-ribose 2′-Oxidase” (Journal of Medicinal Chemistry, 2018).
# Assays:
# Type in all cases: cell-based, Mycobacterium tuberculosis
# [1] = test system: dprE12–TetON1 mutant (dprE1–dprE2 operon); settings: removal of anhydrotetracycline; OD580nm at day 10 relative to DMSO control
# [2] = test system: P01-resistant mutants of Mtb H37Rv
# [3] = test system: Mtb DprE1 Y314H mutant
# [4] = test system: Mtb DprE1 Y314C mutant
# [5] = test system: Mtb DprE1 N364S mutant
# [6] = test system: Mtb DprE1 P116S mutant
compound,measurement,setting,value
"CCOC(=O)NC(=O)c1ccsc1NC(=O)c1nc2ccccc2s1 [TCA1, reference compound]",effect of dprE1–dprE2 transcriptional repression on susceptibility / growth inhibition,[1],increase in susceptibility
"CCn1c(Cc2ccccc2C(F)(F)F)nc(C(=O)NCc2ccccc2)c(O)c1=O [Compound P04, N-Benzyl-1-ethyl-5-hydroxy-6-oxo-2-(2-(trifluoromethyl)benzyl)-1,6-dihydropyrimidine-4-carboxamide]",effect of dprE1–dprE2 transcriptional repression on susceptibility / growth inhibition,[1],more growth inhibition
"Cn1c(Cc2ccccc2C(F)(F)F)nc(C(=O)NCc2ccccc2)c(O)c1=O [Compound P01, N-Benzyl-5-hydroxy-1-methyl-6-oxo-2-(2-(trifluoromethyl)benzyl)-1,6-dihydropyrimidine-4-carboxamide]",level of resistance of P01-resistant mutants compared with the parental strain,[2],more than 10 fold
same,mutation frequency,[2]; at 10× MIC on solid medium,7 × 10^–9
same,"MIC, DprE1 mutation Y314H",[3],>50 µM
same,"fold change of MIC, Y314H",[3],>16
same,"MIC, DprE1 mutation Y314C",[4],25 µM
same,"fold change of MIC, Y314C",[4],8
same,"MIC, DprE1 mutation N364S",[5],2.34 µM
same,"fold change of MIC, N364S",[5],0.75
same,"MIC, DprE1 mutation P116S",[6],18.8 µM
same,"fold change of MIC, P116S",[6],6
same,effect of dprE1–dprE2 transcriptional repression on susceptibility / growth inhibition,[1],more growth inhibition
"C[C@H]1COC2(CCN(c3nc(=O)c4cc(C(F)(F)F)cc([N+](=O)[O-])c4s3)CC2)O1 [BTZ043, reference compound]",effect of dprE1–dprE2 transcriptional repression on susceptibility / growth inhibition,[1],increase in susceptibility
"CC(NC(=O)c1nc(Cc2ccccc2C(F)(F)F)n(C)c(=O)c1O)c1ccccc1 (stereo not shown) [Compound P13, 5-Hydroxy-1-methyl-6-oxo-N-(1-phenylethyl)-2-(2-(trifluoromethyl)benzyl)-1,6-dihydropyrimidine-4-carboxamide]",effect of dprE1–dprE2 transcriptional repression on susceptibility / growth inhibition,[1],did not result in growth inhibition
"CC[C@@H](CO)NCCN[C@@H](CC)CO [ethambutol, reference compound]",effect of dprE1–dprE2 transcriptional repression on susceptibility / growth inhibition,[1],equipotent efficacy
